Reference: paper PMC7617869, “Molecular glues that inhibit deubiquitylase activity and inflammatory signaling” (Nature Structural & Molecular Biology, 2025)
“And” between values parts separate entries of the source, which are not always exact repeats. Equal values may be shown once.

Legend:
[1] = system: ISG expression in MCF10A Cas9 cells expressing BRCC45 R137A; test: MCF10A BRCC45 R137A ISG expression (RT–qPCR); assay type: cell-based, human; conditions: hIFNα2 75 ng/ml, 2.5 μM, 4 h
BRISC (FL) = target: T1, BRISC (FL) (Homo sapiens, UniProt P46736+Q15018+Q9NXR7); test: Native MS of BRISC with inhibitor; conditions: 10 μM BRISC, 1 mM inhibitor
T1 construct: full-length BRISC (FL), ARISC (FL); made in house; host or cells: Spodoptera frugiperda Sf9 insect cells (MultiBac)
Description: Samples were buffer-exchanged into 500 mM ammonium acetate using Zeba Spin (7-kDa molecular weight cutoff) desalting columns (Thermo Fisher Scientific). Samples were analyzed by nanoelectrospray ionization MS using a quadrupole orbitrap MS (Q-Exactive UHMR, Thermo Fisher Scientific) using gold–palladium-coated nanospray tips prepared in-house. The MS instrument was operated in positive ion mode using a capillary voltage of 1.5 kV, capillary temperature of 250 °C and S-lens radiofrequency of 200 V. In-source trapping was used with a desolvation voltage of −200 V for 4 μs. Extended trapping was not used. The quadrupole mass range was 2,000–15,000 m/z. Nitrogen gas was used in the higher-energy collisional dissociation cell with a trap gas pressure setting of 5. Orbitrap resolution was 6,250 and detector m/z optimization was low. Five microscans were averaged and an automatic gain control target of 2 × 10^5 was used. Mass calibration was performed by a separate injection of sodium iodide at a concentration of 2 μg μl^−1. Data processing was performed using QualBrowser (version 4.2.28.14) and deconvoluted using UniDec[82].

trypsin = test: Trypsin IQF diubiquitin selectivity assay; assay type: biochemical; conditions: for Normalised V0: Fig. 1e, Trypsin; for TRYPSIN, normalised activity (Ext. 1a): two replicate columns
Description: BRISC DUB activity was measured at room temperature using 1 nM BRISC and 500 nM IQF diubiquitin K63 substrate (LifeSensors, DU6303) in the presence of DMSO and compounds at 10 μM (final concentrations). Assays were performed in 384-well black flat-bottom low-flange plates (Corning, 35373) in buffer containing 50 mM HEPES–NaOH pH 7.0, 100 mM NaCl, 1 mg ml^−1 BSA, 1 mM DTT and 0.03% v/v Brij-35. Then, 10 μl of twofold concentrated enzyme stock was dispensed, followed by transfer of 200 nl of compounds (1 mM stock) using a 384-pin tool and a 15-min incubation at room temperature. Then, 10 μl of twofold concentrated substrate stock was added and the reaction was monitored by measuring fluorescence intensity (excitation, 540 nm; emission, 580 nm) after 20-min incubation at room temperature and ~50% of substrate was consumed. Orthogonal assays for verification of H20 and P12 hit compounds using USP2 (100 nM) and trypsin (125 nM) were performed in identical conditions.
(§1) IQF assays were performed in DUB reaction buffer containing 50 mM HEPES–NaOH pH 7.0, 100 mM NaCl, 0.1 mg ml^−1 BSA, 1 mM DTT and 0.03% v/v Brij-35. […] The final concentration of BRISC WT, all BRISC mutants, HsBRISCΔLoop, MmBRISC and DrBRISCΔNΔC was 1 nM. Other enzymes were tested at the following concentrations: 5 nM ARISC (FL), 10 nM CfBRISCΔNΔC, 250 nM AMSH* (ref. [43]), 500 nM USP2 and 1 μM trypsin (Sigma, 9002-07-7). For Michaelis–Menten experiments, 1 nM BRISC with 0–1 μM IQF K63-linked diubiquitin substrate was used. Michaelis–Menten analyses and Lineweaver–Burk plots were calculated using GraphPad Prism (version 9.0).
(§2) To assess enzymatic activity, BRISC complexes were diluted to concentrations between 1 nM and 50 nM. […] Then, 20-μl enzyme reactions were carried out in 384-well black flat-bottom low-flange plates (Corning, 35373). DUB activity was measured using IQF K63-linked diubiquitin (LifeSensors, DU6303) at 50 nM. Cleaved diubiquitin was monitored by measuring fluorescence intensity (excitation, 544 nm; emission, 575 nm; dichroic mirror, 560 nm). Fluorescence intensity was measured every minute for 30 min at 30 °C. Fluorescence intensity units were plotted against time to generate a linear reaction progress curve, where the initial velocity (V0) corresponds to the gradient of the curve (typically achieved within 15 min). IC50 values were calculated using the GraphPad Prism (version 9.0) built-in dose–response equation for inhibitor concentration versus response (variable slope).

BRCC36–Abraxas 2 complex = target: T2, BRCC36–Abraxas 2 complex (Homo sapiens, UniProt P46736+Q15018); test: BRCC36–Abraxas 2 IQF DUB activity assay; assay type: biochemical; conditions: for Normalised V0: Fig. 1e, BRCC36-Abraxas2
T2 construct: made in house; host or cells: Spodoptera frugiperda (Sf9) insect cells, MultiBac
Description: as §1, §2

O=C(NC1CCNCC1)c1nn(C(=O)c2c(Cl)cccc2Cl)cc1NC(=O)c1c(Cl)cccc1Cl [JMS-175-2]
ISG expression (ISG15, IFIT1, IFIT2, IFITM1, CXCL10) [1]: a reduction in ISG expression was not observed
BRISC dimers detected by native MS (BRISC (FL)): BRISC dimers with 4:4:4:4 stoichiometry were detected
Normalised V0 (trypsin; JMS-175-2 0.02 μM): 1.129 and 1.522 and 0.9592
Normalised V0 (trypsin; JMS-175-2 0.0399999 μM): 1.059 and 1.128 and 0.891
Normalised V0 (trypsin; JMS-175-2 0.0599997 μM): 1.053 and 1.443 and 1.028
Normalised V0 (trypsin; JMS-175-2 0.0799994 μM): 1.079 and 1.241 and 1.027
Normalised V0 (trypsin; JMS-175-2 0.119998 μM): 1.132 and 1.572 and 1.058
Normalised V0 (trypsin; JMS-175-2 0.199996 μM): 1.063 and 1.165 and 0.9014
Normalised V0 (trypsin; JMS-175-2 0.499975 μM): 1.046 and 1.263 and 0.9518
Normalised V0 (trypsin; JMS-175-2 0.799936 μM): 1.084 and 1.3 and 1.031
Normalised V0 (trypsin; JMS-175-2 1.25984 μM): 1.117 and 1.247 and 0.9792
Normalised V0 (trypsin; JMS-175-2 1.9996 μM): 1.2322 and 1.34 and 0.9526
Normalised V0 (trypsin; JMS-175-2 3.159 μM): 1.104 and 1.275 and 0.8695
Normalised V0 (trypsin; JMS-175-2 5.19739 μM): 1.019 and 1.261 and 1.016
Normalised V0 (trypsin; JMS-175-2 7.99364 μM): 1.1 and 1.362 and 0.8881
Normalised V0 (trypsin; JMS-175-2 12.7839 μM): 1.055 and 1.3161 and 0.9778
Normalised V0 (trypsin; JMS-175-2 19.96 μM): 1.0605 and 1.284 and 0.9014
Normalised V0 (trypsin; JMS-175-2 31.4999 μM): 1.012 and 1.285 and 0.8918
Normalised V0 (trypsin; JMS-175-2 50.147 μM): 0.965 and 1.142 and 0.7769
Normalised V0 (trypsin; JMS-175-2 79.7601 μM): 0.9096 and 1.115 and 0.8428
Normalised V0 (trypsin; JMS-175-2 125.99 μM): 0.8068 and 0.9447 and 0.6574
Normalised V0 (trypsin; JMS-175-2 199.922 μM): 0.6351 and 0.815 and 0.623
TRYPSIN, normalised activity (Ext. 1a) (trypsin; log [compound (μM)] 0.1938, listed as H20): 1.0307 and 1.0157
TRYPSIN, normalised activity (Ext. 1a) (trypsin; log [compound (μM)] 0.4949, listed as H20): 1.0959 and 1.0924
TRYPSIN, normalised activity (Ext. 1a) (trypsin; log [compound (μM)] 0.7959, listed as H20): 1.0739 and 0.9776
TRYPSIN, normalised activity (Ext. 1a) (trypsin; log [compound (μM)] 1.0969, listed as H20): 1.0282 and 0.9851
TRYPSIN, normalised activity (Ext. 1a) (trypsin; log [compound (μM)] 1.3979, listed as H20): 0.9308 and 0.8423
TRYPSIN, normalised activity (Ext. 1a) (trypsin; log [compound (μM)] 1.6990, listed as H20): 0.8444 and 0.8335
TRYPSIN, normalised activity (Ext. 1a) (trypsin; log [compound (μM)] 2.0000, listed as H20): 0.8160 and 0.6662
TRYPSIN, normalised activity (Ext. 1a) (trypsin; log [compound (μM)] 2.3010, listed as H20): 0.6941 and 0.5461
TRYPSIN, normalised activity (Ext. 1a) (trypsin; log [compound (μM)] -0.1072, listed as H20): 1.2914 and 1.0218
TRYPSIN, normalised activity (Ext. 1a) (trypsin; log [compound (μM)] -0.4082, listed as H20): 1.0017 and 0.9864
TRYPSIN, normalised activity (Ext. 1a) (trypsin; log [compound (μM)] -0.7093, listed as H20): 0.9551 and 0.9457
TRYPSIN, normalised activity (Ext. 1a) (trypsin; log [compound (μM)] -1.7100, normalisation point): 1.0000
Normalised V0 (BRCC36–Abraxas 2 complex; JMS-175-2 0.02 μM): 0.9193 and 1.28 and 0.6661
Normalised V0 (BRCC36–Abraxas 2 complex; JMS-175-2 0.0399999 μM): 0.9382 and 1.101 and 1.021
Normalised V0 (BRCC36–Abraxas 2 complex; JMS-175-2 0.0599997 μM): 0.9046 and 1.264
Normalised V0 (BRCC36–Abraxas 2 complex; JMS-175-2 0.0799994 μM): 0.9962 and 1.366 and 1.351
Normalised V0 (BRCC36–Abraxas 2 complex; JMS-175-2 0.119998 μM): 0.9007 and 1.233 and 1.5528
Normalised V0 (BRCC36–Abraxas 2 complex; JMS-175-2 0.199996 μM): 1.097 and 1.27 and 0.9275
Normalised V0 (BRCC36–Abraxas 2 complex; JMS-175-2 0.499975 μM): 0.8805 and 1.153 and 1.01
Normalised V0 (BRCC36–Abraxas 2 complex; JMS-175-2 0.799936 μM): 0.7961 and 1.246 and 1.323
Normalised V0 (BRCC36–Abraxas 2 complex; JMS-175-2 1.25984 μM): 1.021 and 1.5206 and 1.034
Normalised V0 (BRCC36–Abraxas 2 complex; JMS-175-2 1.9996 μM): 0.8007 and 0.8599 and 1.275
Normalised V0 (BRCC36–Abraxas 2 complex; JMS-175-2 3.159 μM): 1.12 and 1.1529 and 0.9992
Normalised V0 (BRCC36–Abraxas 2 complex; JMS-175-2 5.19739 μM): 0.8446 and 1.053 and 1.407
Normalised V0 (BRCC36–Abraxas 2 complex; JMS-175-2 7.99364 μM): 0.9387 and 0.8597 and 1.27
Normalised V0 (BRCC36–Abraxas 2 complex; JMS-175-2 12.7839 μM): 0.8621 and 1.3106 and 1.2815
Normalised V0 (BRCC36–Abraxas 2 complex; JMS-175-2 19.96 μM): 0.8364 and 1.032 and 1.13
Normalised V0 (BRCC36–Abraxas 2 complex; JMS-175-2 31.4999 μM): 0.8279 and 0.9824 and 0.8224
Normalised V0 (BRCC36–Abraxas 2 complex; JMS-175-2 50.147 μM): 0.8729 and 0.9534 and 1.051
Normalised V0 (BRCC36–Abraxas 2 complex; JMS-175-2 79.7601 μM): 0.848 and 0.9243 and 1.386
Normalised V0 (BRCC36–Abraxas 2 complex; JMS-175-2 125.99 μM): 0.7998 and 0.9987 and 1.073
inhibition of BRCC36–Abraxas 2 complex (BRCC36–Abraxas 2 complex; minimally active complex): did not inhibit
